From US9133182B2, “Selective androgen receptor modulators” (Radius Health, Inc., priority 2010, dated 2015)
pIC50: −log10 of the molar value.

Assays:
[1] = biological target: androgen receptor (Rattus norvegicus (Rat), UniProt P15207); experiment: androgen receptor binding assay (fluorescence polarization, Invitrogen); details: AR-Fluormone complex, 4 h at room temperature
Description: The assay was performed as specified by the manufacturer (Invitrogen, Madison, Wis.). Briefly, 1 μl of 10 mM compound was added to 500 μl of AR screening buffer in a 1.5 ml eppendorf tube to make a 2×10^−5M stock. 10-fold serial dilutions of the test compounds were prepared ranging in concentration from 10^−5M to 10^−12M. Each dilution was added in triplicate to a black 384-microtiter plate. The test compounds will be diluted 2-fold in the final reaction. 2×AR-Fluormone™ complex was prepared with 2 nM Flourmone AL Green™ and 30 nM AR. 25 μl of 2×complex was aliquoted to each reaction well, such that the final reaction volume was 50 μl per well. Plate was sealed with a foil cover and incubated in the dark at room temperature for 4 h. Polarization values for each well were measured. The polarization values were plotted against the concentration of the test compound. […] As a control, a competition curve for R1881 (methyltrienolone) was performed for each assay.

[2] = test system: immature, castrated rat (levator ani and bulba cavernous, LABC); experiment: In vivo rat Herschberger assay, LABC weight; set-up: key: no = no activity observed at highest dose tested.; yes = increased LABC weight relative to castrated vehicle control; details: once daily oral gavage for 4 days
Excerpt: In Vivo Rat Model of Androgen and Anabolic Activity-Rat Herschberger Assay
The following is a typical procedure of the in vivo evaluation of the selective androgens of this invention. In particular, this assay looks primarily at the ability of the selective androgens of this invention to increase muscle size in an immature, castrated rat. In addition, androgenic effects are looked at primarily by weighing the prostate and seminal vesicles. Selective compounds will show a greater increase in the levator ani relative to the prostate and seminal vesicles when compared to testosterone treated, castrated animals or to intact animals that have not been treated. Immature Sprague Dawley male rats were obtained Charles River Laboratories (Stoneridge, N.Y.). All animals were maintained in a temperature and humidity controlled room with a 12 hr light: 12 hr dark cycle, with ad lib access to food (TD 291615, Teklad, Madison, Wis.) and water. Rats were anesthetized and orchidectomized (GDX) or sham surgery (SHAM) was performed. After a 7-day recovery period, the animals were randomized according to weight and assigned to treatment groups (n=5), SHAM, OVX+vehicle, OVX+Cpd treated. Testosterone propionate (TP 1 mg/kg in 5% DMSO/95% corn oil) was administered by once daily subcutaneous injections, while the compounds of the invention are dosed in vehicle (0.5% carboxymethylcellulose) was administered by once daily oral gavage. The rats were then dosed once daily for 4 days. All animals were euthanized via carbon dioxide inhalation 24 hs after the last dose. The prostate, seminal vesicle and levator ani and bulba cavernous (LABC) tissues were removed, weighed and recorded. An increase in mean LABC indicates anabolic activity for that particular compound with regard to oral dosing typically at a maximum tested dose of between 1 mg/kg and 30 mg/kg—see Table 1.

[3] = maximum tested dose between 1 mg/kg and 30 mg/kg, Table 1

Sequence of androgen receptor (P15207 651-902): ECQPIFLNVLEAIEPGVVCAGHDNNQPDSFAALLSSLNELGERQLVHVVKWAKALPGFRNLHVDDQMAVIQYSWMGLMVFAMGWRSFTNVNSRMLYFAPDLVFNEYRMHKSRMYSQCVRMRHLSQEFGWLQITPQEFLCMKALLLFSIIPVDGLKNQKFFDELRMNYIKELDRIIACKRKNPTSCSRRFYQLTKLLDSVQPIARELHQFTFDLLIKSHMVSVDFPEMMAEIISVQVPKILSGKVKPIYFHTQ

Row | Structure (SMILES) | pIC50 ([1]; Table 1) | Oral activity in Herscheberger assay on LABC weight [2, 3] | pIC50 ([1]; Table 2) | Oral activity in Herscheberger assay on LABC weight ([2]; Table 2)
1 | Cc1c(N2C(=O)OC[C@@H]2[C@H](O)C(F)(F)F)ccc(C#N)c1C(F)(F)F [Example 13, 3-methyl-4-((R)-2-oxo-4-((S)-2,2,2-trifluoro-1-hydroxyethyl)oxazolidin-3-yl)-2-(trifluoromethyl)benzonitrile] | 7.89 | yes |  | 
2 | C[C@@H]1OC(=O)N(c2ccc(C#N)c(Cl)c2)[C@H]1[C@H](O)C(F)(F)F [Example 21, 2-Chloro-4-((4S,5S)-5-methyl-2-oxo-4-((S)-2,2,2-trifluoro-1-hydroxyethyl)oxazolidin-3-yl)benzonitrile] | 7.82 | yes |  | 
3 | C[C@@H]1OC(=O)N(c2ccc(C#N)c(Cl)c2)[C@H]1[C@@H](O)C(F)(F)F [Example 22, 2-Chloro-4-((4S,5S)-5-methyl-2-oxo-4-((R)-2,2,2-trifluoro-1-hydroxyethyl)oxazolidin-3-yl)benzonitrile] | 6.68 | yes |  | 
4 | N#Cc1ccc(N2C(=O)OC[C@@H]2[C@H](O)C(F)(F)F)cc1C(F)(F)F [Example 7, 4-((R)-2-oxo-4-((S)-2,2,2-trifluoro-1-hydroxyethyl)oxazolidin-3-yl)-2-(trifluoromethyl)benzonitrile] | 7.30 | yes |  | 
5 | Cc1c(N2C(=O)CC[C@@H]2[C@H](O)C(F)(F)F)ccc(C#N)c1C(F)(F)F [Example 3, 3-methyl-4-((R)-2-oxo-5-((S)-2,2,2-trifluoro-1-hydroxyethyl)pyrrolidin-1-yl)-2-(trifluoromethyl)benzonitrile] | 7.96 | yes |  | 
6 | N#Cc1ccc(N2C(=O)CC[C@@H]2C(O)C(F)(F)F)cc1Cl (stereo partly drawn) [Example 31, 2-chloro-4-((R)-2-(2,2,2-trifluoro-1-hydroxyethyl)-5-oxopyrrolidin-1-yl)benzonitrile] |  |  | 7.34 | yes
7 | Cc1c(N2C(=O)CC[C@@H]2[C@H](O)C(F)(F)F)ccc(C#N)c1Cl [Example 29, 2-chloro-4-((R)-2-((S)-2,2,2-trifluoro-1-hydroxyethyl)-5-oxopyrrolidin-1-yl)-3-methylbenzonitrile] |  |  | 7.60 | yes
8 | N#Cc1ccc(N2C(=O)OC[C@H]2[C@H](O)C(F)(F)F)cc1Cl [Example 9, 2-chloro-4-((S)-2-oxo-4-((S)-2,2,2-trifluoro-1-hydroxyethyl)oxazolidin-3-yl)benzonitrile] | 7.35 | yes |  | 
9 | CN1C[C@H]([C@H](O)C(F)(F)F)N(c2ccc(C#N)c(C(F)(F)F)c2)C1=O [Example 25, 4-((R)-5-((S)-2,2,2-trifluoro-1-hydroxyethyl)-3-methyl-2-oxoimidazolidin-1-yl)-2-(trifluoromethyl)benzonitrile] | 8.00 | no |  | 
10 | Cc1c(N2C(=O)CC[C@@H]2[C@@H](O)C(F)(F)F)ccc(C#N)c1Cl [Example 30, 2-chloro-4-((R)-2-((R)-2,2,2-trifluoro-1-hydroxyethyl)-5-oxopyrrolidin-1-yl)-3-methylbenzonitrile] |  |  | 6.31 | no
